Source: patent US20260109727A1, “RNA CONSTRUCTS AND USES THEREOF” (BioNTech SE, priority 2022, published 2026)

System: human PBMCs
Experiment: XTT cytotoxicity test of PBMCs transfected with LPX-formulated EPO mRNA
Type: cell-based
Details: 24 h, up to 1 μg/well mRNA
Description: Human buffy coats from healthy individuals were obtained from the Faculty of Medicine of Johannes Gutenberg University, Mainz and used to isolate peripheral blood mononuclear cells (PBMCs) on a Ficoll-Paque™ PLUS (Cytiva, Marlborough, MA, USA) density gradient. In preparation for mRNA transfection, cryopreserved PBMCs were thawed and seeded into 96-well plates at a density of 5×10^5 cells per well in 190 μL RPMI medium supplemented with 1% non-essential amino acids (NEAA), 1% sodium pyruvate and 10% Fetal Bovine Serum (Merck, Germany). Cells were maintained at 37° C. with 5% CO2 until transfection with 0.5, 1.5, 5.0 and 15 μg/ml lipoplex-formulated EPO mRNA (LPX-RNA), as described in Kranz, L. M., et al. (2016) Nature, 534, 396-401. The complexed RNA (10 μl per well) was added in triplicates and supernatants were collected at 24 h after transfection to perform single cell cytotoxicity assay and to measure the cytokine/chemokine profile. […] The levels of IL-6 (Interleukin 6), TNF-α (Tumor necrosis factor alpha), IL-1 (Interleukin 1 beta), IFN-γ (Interferon gamma), MCP-1 (Monocyte Chemoattractant Protein-1), […] (Macrophage inflammatory protein 1 beta) and IL-10 (Interleukin 10) were quantified 24 h after the mRNA transfection. […]

SMILES: COC1C(OP(=O)(O)OC[C@H]2O[C@@H](c3cn(C)c(=O)[nH]c3=O)C(O)C2O)[C@@H](COP(=O)(O)OP(=O)([O-])OP(=O)(O)OC[C@H]2O[C@@H](n3c[n+](C)c4c(O)nc(N)nc43)C(O)C2OC)O[C@H]1n1cnc2c(N)ncnc21 (stereo partly shown) [I′-6, m^7G(^3′-OMe)pppA(2′-OMe)pm^1Ψ]
- toxic effect on cell viability (XTT): no toxic effect
